Data published in ChEMBL document CHEMBL5154726, “Identification of triazolopyridine derivatives as a new class of AhR agonists and evaluation of anti-psoriasis effect in a mouse model” (Eur J Med Chem, 2022).
Values after ≈ are worked out from the molar mass of the structure shown.

Biological target: T1, Aryl hydrocarbon receptor (Homo sapiens, UniProt P35869)
T1 sequence (P35869 whole entry): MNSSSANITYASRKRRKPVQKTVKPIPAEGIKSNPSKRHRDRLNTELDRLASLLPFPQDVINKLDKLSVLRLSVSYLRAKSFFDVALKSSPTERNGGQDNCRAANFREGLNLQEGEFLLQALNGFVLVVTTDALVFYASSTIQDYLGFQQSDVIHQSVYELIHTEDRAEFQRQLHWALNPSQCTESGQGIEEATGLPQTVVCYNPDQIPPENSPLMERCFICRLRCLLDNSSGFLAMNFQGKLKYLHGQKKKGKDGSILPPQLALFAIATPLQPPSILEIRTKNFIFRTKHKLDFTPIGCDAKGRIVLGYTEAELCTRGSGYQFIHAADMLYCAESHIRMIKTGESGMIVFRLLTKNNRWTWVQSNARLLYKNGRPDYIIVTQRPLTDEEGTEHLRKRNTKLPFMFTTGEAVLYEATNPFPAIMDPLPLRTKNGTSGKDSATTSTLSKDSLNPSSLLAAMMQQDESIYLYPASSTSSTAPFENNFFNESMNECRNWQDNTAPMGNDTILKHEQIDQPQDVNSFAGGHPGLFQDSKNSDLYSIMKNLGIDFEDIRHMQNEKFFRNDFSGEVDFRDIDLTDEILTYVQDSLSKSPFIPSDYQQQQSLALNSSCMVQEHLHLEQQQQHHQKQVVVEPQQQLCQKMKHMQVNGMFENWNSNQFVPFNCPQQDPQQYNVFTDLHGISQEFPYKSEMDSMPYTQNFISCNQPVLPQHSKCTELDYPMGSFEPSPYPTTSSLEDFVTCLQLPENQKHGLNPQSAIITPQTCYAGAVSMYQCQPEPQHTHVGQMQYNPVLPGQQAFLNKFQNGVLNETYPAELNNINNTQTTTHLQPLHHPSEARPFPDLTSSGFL
Assay: Agonist activity at AhR in human recombinant HepG2-Lucia AhR cell incubated for 24 hrs by luciferase reporter gene assay
Format: cell-based
Conditions: not given

Point of comparison: Cc1ccc(-c2nc3ccc(Br)cn3n2)cc1, EC50 1890 nM. Against it:
- [O-][n+]1c(-c2ccc(Br)cc2)nc2cc(F)ccn21 — 23-fold lower, 83 nM
- [O-][n+]1c(-c2ccc(Br)cc2)nc2c(Br)cccn21 — 5.1-fold lower, 374 nM
- Brc1ccc2nc(-c3ccccc3)nn2c1 — higher, > 10000 nM
- Cc1ccc2nc(-c3ccc(Br)cc3)[n+]([O-])n2c1 — 2.2-fold lower, 842 nM
- Fc1ccc2nc(-c3ccc(Br)cc3)nn2c1 — 2.9-fold lower, 658 nM
- [O-][n+]1c(-c2ccncc2)nc2ccccn21 — 2.5-fold higher, 4660 nM
- COc1ccc(-c2nc3ccccn3[n+]2[O-])cc1 — higher, > 10000 nM
- Fc1ccc(-c2nc3ccc(Br)cn3n2)cc1 — 1.6-fold lower, 1190 nM
- Brc1ccc(-c2nc3c(Br)cccn3n2)cc1 — 11-fold lower, 172 nM
- [O-][n+]1c(-c2ccc(-c3ccc(Cl)cc3)o2)nc2ccccn21 — higher, > 10000 nM
- [O-][n+]1c(-c2ccc(Br)cc2)nc2ccc(Cl)cn21 — 5600-fold lower, 0.34 nM
- Clc1ccc2nc(-c3ccc(Br)cc3)nn2c1 — 12-fold lower, 156 nM
- Brc1ccc(-c2nc3ccc(-c4ccccc4)cn3n2)cc1 — higher, > 10000 nM
- Brc1cccc(-c2nc3ccc(Br)cn3n2)c1 — 200-fold lower, 9.6 nM
- [O-][n+]1c(-c2ccc(Br)cc2)nc2cc(Br)ccn21 — 30-fold lower, 62 nM
- [O-][n+]1c(-c2ccc(Br)cc2)nc2ccc(Br)cn21 — 7000-fold lower, 0.27 nM
- [O-][n+]1c(-c2ccc(F)cc2)nc2ccccn21 — higher, > 10000 nM
- Brc1ccc(-c2nc3cc4ccccc4cn3n2)cc1 — higher, > 10000 nM
- [O-][n+]1c(-c2cccnc2)nc2ccccn21 — higher, > 10000 nM
- [O-][n+]1c(-c2ccc3ccccc3c2)nc2ccccn21 — higher, > 10000 nM
- Cc1ccc2nc(-c3ccc(Br)cc3)nn2c1 — higher, > 10000 nM
- COC(=O)c1ccc(-c2nc3ccccn3[n+]2[O-])cc1 — higher, > 10000 nM
- Clc1ccc(-c2nc3ccc(Br)cn3n2)cc1 — 2300-fold lower, 0.83 nM
- [O-][n+]1c(-c2ccc(Br)cc2)nc2cc(Cl)ccn21 — 7-fold lower, 271 nM
- FC(F)(F)c1ccc(-c2nc3ccc(Br)cn3n2)cc1 — 4300-fold lower, 0.44 nM
- [O-][n+]1c(-c2ccc(Br)cc2)nc2ccc(C(F)(F)F)cn21 — 2.5-fold lower, 759 nM
- Brc1ccc(-c2nc3cc(Br)ccn3n2)cc1 — 3-fold lower, 625 nM
- [O-][n+]1c(-c2ccc(Br)cc2)nc2ccc(F)cn21 — 1.7-fold lower, 1090 nM
- N#Cc1ccc2nc(-c3ccc(Br)cc3)[n+]([O-])n2c1 — 25-fold lower, 77 nM
- Brc1ccc(-c2nc3cccc(Br)n3n2)cc1 — 3-fold lower, 625 nM
- [O-][n+]1c(-c2ccc(Cl)cc2)nc2ccccn21 — 1.8-fold higher, 3330 nM
- Brc1ccc2nc(-c3ccccc3Br)nn2c1 — within 1.5-fold, 2430 nM
- [O-][n+]1c(-c2ccc(Br)cc2)nc2ccccn21 — within 1.5-fold, 2500 nM
- [O-][n+]1c(-c2ccc(Br)cc2)nc2cccc(Br)n21 — 9.2-fold lower, 205 nM
- [O-][n+]1c(-c2ccc(Br)nc2)nc2ccccn21 — higher, > 10000 nM
- N#Cc1ccc2nc(-c3ccc(Br)cc3)nn2c1 — 82-fold lower, 23 nM

System: not listed separately
Assay: Apparent permeability in MDCK cells at 50 uM incubated for 90 mins by LC/MS analysis
Format: ADME, cell-based, Canis lupus familiaris
Conditions: dog

Molecule [O-][n+]1c(-c2ccc(Br)cc2)nc2ccc(Br)cn21 has a Papp at 1.5 h, 50 µM of 1.43 ×10⁻⁶ cm/s.

System: not listed separately
Assay: Efflux ratio of apparent permeability in MDCK cells
Format: ADME, cell-based, Canis lupus familiaris
Conditions: dog

Work on [O-][n+]1c(-c2ccc(Br)cc2)nc2ccc(Br)cn21 yielded an efflux ratio of 6.2.

System: not listed separately
Assay: Solubility of the compound incubated for 48 hrs under shaking condition by LC/MS analysis
Format: physicochemical
Conditions: not given

With [O-][n+]1c(-c2ccc(Br)cc2)nc2ccc(Br)cn21 the solubility thermodynamic at 48 h was 2.24 µg/mL (≈ 6.07 µM).

System: not listed separately
Assay: n-Octanol/water partition coefficient, logD of the compound at 1 mg incubated for 48 hrs under shaking condition by LC/MS analysis
Format: physicochemical
Conditions: not given

With [O-][n+]1c(-c2ccc(Br)cc2)nc2ccc(Br)cn21 the logD at 48 h was 2.59.

System: not listed separately
Assay: Induction of apoptosis in human CD4+ve Th cells
Format: toxicity, cell-based
Conditions: not given

Molecule CC(C)c1c(O)cc(/C=C/c2ccccc2)cc1O [TAPINAROF] has an IC50 of 5200 nM.
